Our source for the Km values is paper PMC4460186, “Fast and reliable production, purification and characterization of heat-stable, bifunctional enzyme chimeras” (AMB Express, 2015).

For assay [1], the system named is T1, BC.
T1 construct: gene bgl1; single-polypeptide fusion HIS-Bgl1-Cel5A-STREP, Ser-Ser linker, tags kept; from E. coli M15[pREP4]; with Endoglucanase
Kind of assay: 4-nitrophenol release, absorbance at […] nm. The format is biochemical, uncultured archaeon. The note with it: 10 mM NaPO4 pH 7.0, 80°C (standard assay); read-out: Substrate, 4-NP-β-D-GP / KM.

Assay [2] deals with T2, CB.
T2 construct: gene bgl1; single-polypeptide fusion HIS-Cel5A-Bgl1-STREP, Ser-Ser linker, tags kept; from E. coli M15[pREP4]; truncated STREP-tagged Bgl1 degradation products remain in eluate; with Endoglucanase
The assay can be described thus: 4-nitrophenol release, absorbance at […] nm. The format is biochemical, uncultured archaeon. The note with it: 10 mM NaPO4 pH 7.0, 80°C (standard assay); read-out: Substrate, 4-NP-β-D-GP / KM.

As for `O=[N+]([O-])c1ccc(O[C@@H]2O[C@H](CO)[C@@H](O)[C@H](O)[C@H]2O)cc1` [4-NP-β-D-GP, 4-nitrophenyl-β-D-glucopyranoside], the Km in assay [1] and in assay [2] was 530 µM in each case.
